Experimental data from patent US20100034874A1, “LIPOSOME ENCAPSULATING AMMINE-PLATINUM COMPLEX AT HIGH CONCENTRATION, AND METHOD FOR PRODUCTION OF THE LIPOSOME” (KATAYAMA CHEMICAL INDUSTRIES CO., LTD., priority 2006, published 2010).

Assays:
[1] = cited from earlier work
[2] = Conversion of cis-diamine dinitratoplatinum (II) to cis-diamine dichloroplatinum (II) in 150 mM sodium chloride (UV absorption spectrum); assay type: physicochemical
Procedure: Five mg/ml of cis-diamine dinitratoplatinum (II) was dissolved in a TAPS buffer solution containing 150 mM of sodium chloride (pH: 8.4); the solution was stationarily placed at 25° C.; and the UV spectrum of the solution was determined over time (0 minute, 5 minutes, 10 minutes, 15 minutes, 30 minutes and 45 minutes). One mg of cis-diamine dichloroplatinum (II) was dissolved in 1 ml of sodium chloride-containing TAPS buffer solution, to give a control, and the UV spectrum thereof was obtained. […] There was no change in UV spectrum, when the sample was stored without movement for 45 minutes or more. […] This probably occurs because the presence of NaCl leads to the conversion of cis-diamine dinitratoplatinum (II) to the hardly water-soluble cis-diamine dichloroplatinum (II) and the subsequent precipitation of the latter.
Replacement of the nitrate ion of cis-diammine dinitratoplatinum (II) with the chloride ion in the 150 mM sodium chloride solution was studied by absorption spectroscopic method (Comparative Example 1 and FIGS. 4A and 4B).

Solubility in water = assay type: physicochemical
Procedure: For example, in the case of cisplatin, the solubility of cisplatin in water is 2 mg/ml (room temperature). The solubility of cisplatin nitrate is 20 mg/ml. Namely, cisplatin can be used as a platinum complex in an amount of not less than its solubility (room temperature). Ionic species forming a water-soluble or a poorly water-soluble salt with the platinum complex such as cisplatin are known in the art or can be selected properly, and thus, even if the platinum complex is that other than cisplatin, it is possible to select a platinum complex properly by considering its solubility, similarly to cisplatin. In this case, it is possible to form nitrates similarly, by adjusting the equivalent amount of silver nitrate added. In addition, concentrations of a bromide ion and an iodide ion are the same as the concentration of a chloride ion respectively; therefore, with any of these ions, the present invention can be carried out without problems. This is because the bromide ion or the iodide ion, which are higher in binding property than the chloride ion, can form a poorly water-soluble substance similarly, even when the present invention is carried out under the same conditions. Since it is believed that there is no difference in liposomal membrane permeability of each ion, the present invention can be carried out by taking these elements into consideration similarly.

[3] = tested on: Ehrlich ascites cancer cells (EAT cells); assay: Cell proliferation-inhibiting activity (MTT assay, WST-8 reagent); assay type: cell-based; conditions: 48 hours, no sample 0.480, n=3
Procedure: Ehrlich ascites cancer cells (EAT cells) (ATCC Number: CCl^−77TME (Ehrlich-Letter ascites)) were inoculated at 1×10^3 cell/100 μl/well (Falcon3072), and a sample was added after culture for 24 hours. The samples were prepared by diluting the cis-diamine dichloroplatinum (II)-containing unmodified liposome, the cis-diamine dichloroplatinum (II)-containing sialyl Lewis X liposome, and the cis-diamine dichloroplatinum (II)-containing anti-E-selectin antibody-modified liposome, with DMEM buffer solution (Dulbeccos's Ham Modified Eagle liquid medium, low glucose SIGMA D6046)/10% FBS (fetal calf serum SIGMA F0926)/penicillin 100 unit/ml-streptomycin 100 μg/ml (antibiotic antimycotic solution, stabilized SIGMA A5955)) to a cis-diamine dichloroplatinum (II) amount of 10 μg/ml. […] The cell count, 48 hours after addition was determined by the MTT assay of using the formazan amount as an indicator.
In addition, a solution containing only added DMEM/10% FBS was analyzed by the MTT assay as a control containing no sample.
A cell count-measuring reagent WST-8 (Kishida Chemical) was added to each well in an amount of 20 μl, and the absorbance thereof at 450 nm was determined after 2 hours. The absorbance was determined by using GE Healthcare Ultrospec-6300. […]

[4] = tested on: Ehrlich ascites cancer cells (EAT cells); assay: Tumor proliferation-inhibiting activity (tumor volume); assay type: in vivo, mouse (Balb/c); conditions: 1.5 mg/kg caudal vein on days 5, 12, 19, n=3
Procedure: 1×10^6 Ehrlich ascites cancer cells (EAT cells) (ATCC Number: CCl^−77TME (Ehrlich-Letter ascites)) were transplanted subcutaneously into right femoral region of 6-week old mice (Balb/c, female) (n=3), and the following tests were performed after 10 days. The cis-diamine dichloroplatinum (II)-containing sialyl Lewis X-modified liposome and the anti-E-selectin antibody-modified liposome were administered into the caudal vein of a mouse respectively in an amount of 1.5 mg/kg (200 μg/ml) on the 5th, 12th, and 19th days after transplantation. As a control, cis-diamine dichloroplatinum (II) was dissolved in physiological saline to a concentration of 200 μg/ml. The dissolved solution was administered similarly.
The size, length (A mm) and diameter (B mm), of the tumor was determined by using a digital vernier caliper (Mitsutoyo CD-S15C) on the 12th, 19th, and 29th days after tumor transplantation. The volume of the tumor (mm^3) was calculated by the following Formula: (A×B^2)×0.4.

[5] = tested on: Ehrlich ascites cancer cells (EAT cells) tumor; assay: Accumulation at cancerous site: platinum content in removed tumor by FAAS; assay type: in vivo, mouse (Balb/c); conditions: 1.7 mg/kg body weight, caudal vein, n=1
Procedure: 1×10^6 Ehrlich ascites cancer cells (EAT cells) (ATCC Number: CCl^−77TME (Ehrlich-Letter ascites)) were transplanted subcutaneously into the right femoral region of a 6-week old mouse (Balb/c, female) (n=1) and the following test was performed after 10 days. A cis-diamine dichloroplatinum (II)-containing sialyl Lewis X-modified liposome and a control of pure cis-diamine dichloroplatinum (II) were administered respectively into the caudal vein of a mouse in an amount of 150 μl, i.e. 1.7 mg/kg body weight (226 μg/ml). The resulting tumor was removed, 48 and 96 hours after administration. 0.1 g of the removed tumor tissue (0.2 to 1.0 g) was added to 1 ml of conc. nitric acid, and the mixture was agitated for 5 minutes. After static storage for 1 hour, the mixture was heated at […] in a water bath and then cooled to room temperature. 300 μl of distilled water was added to 100 μl of the nitric 5 acid-treated solution. The content of platinum therein was determined by flameless atomic absorption spectroscopy (FAAS: AA-6700 Atomic absorption flame emission spectrophotometer SIMAZU), and the platinum contents in 1 g of tumor were compared between the sample and the control. […]

| SMILES | solubility of cisplatin nitrate [1] [mg/mL] | time for conversion to cis-diamine dichloroplatinum (II) ([2]; TAPS containing 150 mM NaCl, pH 8.4, 25° C., 5 mg/ml) [min] | fraction converted to cis-diamine dichloroplatinum (II) ([2]; in the presence of 150 mM sodium chloride) [%] | solubility in water relative to cis-diamine dichloroplatinum (II) (Solubility in water) | Average absorbance (450 nm) ([3]; sample final concentration 8.30 μM) | Average absorbance (450 nm) ([3]; sample final concentration 16.60 μM) | Average tumor volume ([4]; Day 12 after tumor transplantation) [mm^3] | Average tumor volume ([4]; Day 19 after tumor transplantation) [mm^3] | Average tumor volume ([4]; Day 29 after tumor transplantation) [mm^3] | Platinum concentration (ng/g tissue) in tumor ([5]; 48 hours after administration) [ng/g tissue] | Platinum concentration (ng/g tissue) in tumor ([5]; 96 hours after administration) [ng/g tissue] |
| --- | --- | --- | --- | --- | --- | --- | --- | --- | --- | --- | --- |
| [NH2][Pt]([NH2])([O][N+](=O)[O-])[O][N+](=O)[O-] [CDDP-3, cis-diammine dinitratoplatinum (II)] | 20 | 45 | ≥ 99 | approximately 10 times | – | – | – | – | – | – | – |
| N.N.[Cl][Pt][Cl] [Cisplatin, cis-diammine dichloroplatinum (II)] | – | – | – | – | 0.045 | 0.027 | 63 | 63 | 501 | 361 | 49 |
